In EP4610267A1, “CYCLIC DINUCLEOTIDES AND CONJUGATES THEREOF WITH ANTIBODIES” (priority 2024, dated 2025):
pEC50: −log10 of the molar value.

How the values were obtained:
STING HAQ = biological target: T1, STING HAQ (Homo sapiens, UniProt Q86WV6, G230A/H232R/R293Q/R71H); experiment: 293T STING digitonin reporter assay (HAQ haplotype); format: cell-based; conditions: digitonin permeabilised 293T reporter cells
T1 construct: expressed in transfected cells
Procedure: Digitonin Assay with 293T Reporter Cells. The generation of 293T reporter cells stably expressing different STING protein haplotypes (WT, HAQ, REF, AQ, or Q) was described previously (Novotna et al, J. Med. Chem. 2019,62, 10676). The cells were seeded at a density of 250 000 cells per cm^2 into 96 well white poly(D-lysine) coated plates in 100 µL of DMEM with high glucose supplemented with 10% heat inactivated FBS. Next day, the medium was removed, and compounds were added in 3-fold serial dilutions in a digitonin buffer containing 50 mM HEPES (pH 7.0), 100 mM KCl, 3 mM MgClz, 0.1 mM DTT, 85 mM sucrose, 0.2% (w/w) BSA, 1 mM ATP, 0.1 mM GTP, and 10 µg/mL digitonin A. After 30 min incubation at 37 °C with 5% CO2, the digitonin buffer was removed, cells were washed once with 100 µL of the cultivation medium, and 100 µL of fresh medium was added to each well. The plates with cells were further incubated for 5 h at 37 °C with 5% CO2. Thereafter, 50 µL of the medium was removed, and 30 µL of Bright-Glo Luciferase Assay System reagent was added to each well. […] Nonlinear regression curve fit with standard slope was used for EC50 value calculations. The EC50 value represents CDN concentration that gives half-maximal response of firefly luciferase in the 293T reporter assay.

[1] = Pharmacokinetics of Compound 2.2 applied i.v.; format: in vivo; conditions: mice (Balb/c), 5mg/kg i.v.
Procedure: Pharmacokinetics of Compound 2.2 applied I.V. at dose 5mg/kg was determined in Balb/c mice. Plasma samples were precipitated with methanol (final concetration 70%) spiked with internal standard, the precipited proteins were removed by centrigugation and supernatant was evaporated. The analytes were dissolved in 100 µL of 10 mM CH3COONH4 by vortexing for 5 min. Compound 22 along with the corresponding internal standard were separated and detected using a liquid chromatograph Exion LC AD with tandem mass spectrometer QTrap 6500+ (both Sciex) equipped with a separation column Acquity BEH C18 1.7 µm, 50 × 2.1 mm, as well as a guard column 1.7 µm C18, 5 × 2.1 mm (both Waters). The mobile phase (A) used for separation consisted of 10 mM CH3COONH4 in deionized water, while mobile phase (B) was composed of 10 mM CH3COONH4 in methanol. […] Analytes were monitored through their specific multiple reaction monitoring (MRM) transitions by utilizing electrospray ionization (ESI) in a positive mode with the following parameters: 50 msec dwell time, entrance potential 10 V, ion source temperature 350°C, ion spray voltage 5.5 kV, curtain gas (40 psi), GS1 gas (50 psi), and GS2 gas (50 psi). Quantification of Compound 2.2 was conducted using a weighted calibration curve (1/x^2) with a structurally similar internal standard.

plasma cytokines = experiment: In vivo plasma cytokine induction after single i.v. injection (multiplex ELISA, Luminex); conditions: single i.v. 1.7mg/kg, Balb/C mice (Fig. 7)
Procedure: Compound 3.3 was conjugated to the engineered light chain C110 and heavy chain C375 of anti-Her2 mAb (mAb3) as described above (mAb3-3.3). Furthermore, the compound was also conjugated to anti-Her2 mAb (mAb2) via inter-chain Cys (mAb2-3.3). A single intravenous injection of 5 mg/kg mAb2-3.3 (DAR 3.8) and 5 mg/kg mAb3-3.3 (DAR 3.6) was administered to Balb/C mice via tail vein injection. Blood samples were collected from the injected animals at 2, 4, 8, and 20 hours post-injection, and plasma cytokines were measured using multiplex ELISA (Luminex).
Compound 3.3 was conjugated to anti-TROP2 mAb4 via inter-chain Cys and to the engineered light chain C110 and heavy chain C375 of anti-TROP2 mAb5, as described above. […] Blood samples were collected from the injected animals at 2, 4, 8, and 20 hours post-injection, and plasma cytokines were measured using multiplex ELISA (Luminex).

T1 sequence (Q86WV6 whole entry R71H/G230A/H232R/R293Q): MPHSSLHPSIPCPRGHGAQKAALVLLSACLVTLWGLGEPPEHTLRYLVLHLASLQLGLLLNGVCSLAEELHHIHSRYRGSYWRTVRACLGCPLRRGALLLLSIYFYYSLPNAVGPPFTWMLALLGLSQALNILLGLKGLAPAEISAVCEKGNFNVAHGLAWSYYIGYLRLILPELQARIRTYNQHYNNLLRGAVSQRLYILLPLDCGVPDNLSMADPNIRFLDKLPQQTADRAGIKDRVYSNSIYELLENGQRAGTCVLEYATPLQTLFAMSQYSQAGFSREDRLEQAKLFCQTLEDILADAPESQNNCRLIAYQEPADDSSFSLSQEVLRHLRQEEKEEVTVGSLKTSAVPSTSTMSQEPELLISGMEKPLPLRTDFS

In the case of `Nc1ncnc2c1ncn2[C@@H]1O[C@@H]2OCP(=O)(S)O[C@@H]3[C@H](F)[C@@H](COP(=O)(S)OC[C@H]2[C@H]1F)O[C@H]3n1cnc2c(=O)[nH]cnc21` (single isomer, unassigned) [Compound 2.2], the pEC50 (STING HAQ) was 7.70, the half-life [1] was “less than 10 minutes” and the plasma cytokine levels (plasma cytokines) was “high plasma levels”.
